Consider eight compounds from patent US20230227769A1, “Means and Methods to Improve Yeast Fermentation Efficiency” (VIB VZW, priority 2020, published 2023).

The structures appear in SMILES notation.

The test system of the test is 2G industrial yeast strains MD4 and T18. Kind of test: Fermentations in lignocellulose hydrolysates spiked with a range of inhibitor concentrations. It counts as cell-based, S. cerevisiae. The settings on record: five lignocellulose hydrolysates spiked with a range of inhibitor concentrations; both strains MD4 and T18. The protocol: The medium was spiked with different industrially relevant concentrations of (FIG. 1A, FIG. 1E) HMF, (FIG. 1B, FIG. 1F) furfural, (FIG. 1C, FIG. 1G) formic acid and (FIG. 1D, FIG. 1H) acetic acid.
As a first step in developing a yeast strain that can cope with the presence of fermentation inhibitors, the level of all relevant inhibitory compounds was measured in five different lignocellulose hydrolysates: two bagasse hydrolysates, two corn cob hydrolysates and one spruce hydrolysate (for composition see Table 2). Fermentations with two 2G industrial yeast strains, MD4 and T18, were performed using these hydrolysates spiked with a range of inhibitor concentrations.
After preculture of the yeast strains for 48 h at 30° C. with shaking at 200 rpm in YPD2% (10 g/l yeast extract, 20 g/l bacteriological peptone, 2% D-glucose) up to stationary phase, small-scale (10 ml) semi-anaerobic fermentations with MD4 and T18 were performed at pH 5.2, 35° C., shaking at 350 rpm, and a yeast inoculum OD 5.0. Weight loss of the fermentation tubes, which is correlated with CO2 production during conversion of glucose and xylose into ethanol, was measured continuously, or sampling at different timepoints was performed to analyse sugar and inhibitor concentrations by HPLC.
In the case of `O=Cc1ccc(O)cc1` [4-hydroxybenzaldehyde], the “inhibitory effect on fermentation” value is “smaller inhibitory effect”.

In the case of `O=Cc1ccc(CO)o1` [HMF, 5-(hydroxymethyl)furfural], the “inhibitory effect on fermentation” value is “major inhibitors”. Consider `O=CO` [formic acid], for which the “inhibitory effect on fermentation” value is listed as “major inhibitors”. For `O=Cc1ccco1` [furfural], the “inhibitory effect on fermentation” value was “major inhibitors”. Consider `O=C(O)c1ccc(O)cc1` [4-hydroxybenzoic acid], for which the “inhibitory effect on fermentation” value was “smaller inhibitory effect”. Under `CC(=O)CCC(=O)O` [Levulinic acid] stands “smaller inhibitory effect”; under `CC(=O)O` [acetic acid], “major inhibitors”; under `COc1cc(C=O)ccc1O` [vanillin], “smaller inhibitory effect”.
